Data from patent US12403195B2, “Sensitizing cells to proton radiation” (Humanetics Corporation, priority 2017, dated 2025).
Where two headings read alike, the source gives them in different places.

Tests used:
[1] = tested on: H460 human non-small cell lung cancer (NSCLC) cells; experiment: Clonogenic cell survival after radiation, H460 cells; format: cell-based; conditions: for Genistein (D0): 5 μM nanoparticulate genistein 24 hours before radiation; for DMF (Dose Modifying Factor): 5 μM nanoparticulate genistein vs vehicle, radiosensitization defined as DMF>1.1
Text: (§1) In the experiments described herein, a R10.5M5 double scattered proton beam (a proton beam with a maximum range of 10.5 cm where the SOBP comprises the final 5 cm) was utilized with precise positioning of culture dishes at specific points at the entrance, middle, and end of the SOBP. For this beam, the “low LET” was at 2 cm depth, corresponding to about 4 keV/μM, and the high LET was at 10 cm depth, corresponding to about 30 keV/μM. As used herein, the term “low LET” refers to about one to about ten (e.g., about one to three, two to four, three to five, four to six, five to seven, six to eight, seven to nine, or eight to ten) keV/μM unrestricted LET as determined from tables of proton stopping power in liquid water, available from the National Institute of Standards and Technology (stopping power and range tables for protons; “PSTAR”). The term “high-LET” refers to about 20 to 40 (e.g., 20 to 25, 25 to 30, 30 to 35, or 35 to 40) keV/μM, again as determined from PSTAR unrestricted LET tables.
(§2) Studies were conducted to determine whether a nanoparticulate genistein formulation affects cellular radiosensitivity to protons with increasing LET. Normal and cancer cell lines were exposed to low, intermediate, or high LET proton radiation. These experiments used the H1299 and H460 NSCLC cell lines, which are relevant to lung cancer research during medical radiation exposure as well as nonmedical or accidental radiation exposure. These cell lines were derived from human cancer patients and have well-known radiobiologic properties, with H1299 being relatively less radiosensitive. Both lines harbor Ras pathway activating mutations (H460, KRAS; H1299, NRAS). MRC5 human lung fibroblasts also were used as representative normal cells. Each cell line was obtained from the American Type Culture Collection (ATCC) and tested for mycoplasma regularly. Clonogenic cell survival studies were performed as described elsewhere (Cengel et al., Neoplasia 9(4):341-348, 2007). Briefly, cells were plated 24 hours prior to radiation at about 50% confluence. […] Cells were radμated using either 250 KVp x-rays or protons with lower vs. higher LET. […]
(§3) Relative radiosensitivity was numerically compared using a standard variable, D0 (the dose of radiation needed to reduce the surviving fraction by a factor of 1/e), which was determined from the positive solution to the quadratic equation of the form: βD^2+αD−1=0, where α and β are determined from the LQ survival curve fit as above. The Dose Modifying Factor (DMF) was determined by the quotient: […]

[2] = humans; compared to formulations containing non-micronized genistein; cited from earlier work
H1299 human NSCLC cells = experiment: Clonogenic cell survival after radiation, H1299 cells; format: cell-based; conditions: for Genistein (D0): 5 μM nanoparticulate genistein 24 hours before radiation; for DMF (Dose Modifying Factor): 5 μM nanoparticulate genistein vs vehicle
Text: as §1
Studies were conducted to determine whether a nanoparticulate genistein formulation affects cellular radiosensitivity to protons with increasing LET. Normal and cancer cell lines were exposed to low, intermediate, or high LET proton radiation. These experiments used the H1299 and H460 NSCLC cell lines, which are relevant to lung cancer research during medical radiation exposure as well as nonmedical or accidental radiation exposure. These cell lines were derived from human cancer patients and have well-known radiobiologic properties, with H1299 being relatively less radiosensitive. Both lines harbor Ras pathway activating mutations (H460, KRAS; H1299, NRAS). MRC5 human lung fibroblasts also were used as representative normal cells. Each cell line was obtained from the American Type Culture Collection (ATCC) and tested for mycoplasma regularly. Clonogenic cell survival studies were performed as described elsewhere (Cengel et al., Neoplasia 9(4):341-348, 2007). Briefly, cells were plated 24 hours prior to radiation at about 50% confluence. […] Cells were radμated using either 250 KVp x-rays or protons with lower vs. higher LET. To vary the proton LET, cell dishes were placed at a depth of 2 cm (D2, low LET) or 10 cm (D10, high LET) in a R10.5M5 double scattered proton beam—a double scattered proton beam with a maximum range of 10.5 cm and a modulated depth of 5 cm, meaning that the Spread-out Bragg peak (SOBP) began roughly at a depth of 5.5 cm. In this configuration, the D2 and D10 positions corresponded to the entrance and terminal portions of the SOBP, respectively. After exposure to radiation, cells were trypsinized into a single cell suspension and re-plated at various densities without nanoparticulate genistein. About two weeks later (typically 13 to 16 days, depending on colony size), plates were rinsed and stained using crystal violet/ethanol, and colonies were enumerated using an Oxford Optronix automated colony counter with a minimum threshold size of 50 cells to define a colony. […]
as §3

[3] = tested on: MRC5 normal human lung fibroblasts; experiment: Clonogenic cell survival after radiation, MRC5 cells; format: cell-based; conditions: for Genistein (D0): 5 μM nanoparticulate genistein 24 hours before radiation; for DMF (Dose Modifying Factor): 5 μM nanoparticulate genistein vs vehicle
Text: as §1, §2, §3

[4] = mice; compared to formulations containing non-micronized genistein; cited from earlier work
[5] = canines; compared to formulations containing non-micronized genistein; cited from earlier work
[6] = High LET Protons (D10, 10 cm depth)

O=c1c(-c2ccc(O)cc2)coc2cc(O)cc(O)c12 [Genistein, 5,7-dihydroxy-3-(4-hydroxyphenyl)-chromen-4-one]
Genistein (D0) [1, 6]: 2.23
DMF (Dose Modifying Factor) ([1]; High LET Protons): 1.04
Genistein (D0) ([1]; X-Rays (250 KVp), D0 = dose reducing surviving fraction by 1/e): 2.41
DMF (Dose Modifying Factor) ([1]; X-Rays): 1.07
oral bioavailability [2]: increased oral bioavailability
Genistein (D0) (H1299 human NSCLC cells; [6]): 3.03
DMF (Dose Modifying Factor) (H1299 human NSCLC cells; High LET Protons, radiosensitization defined as DMF>1.1): 1.35
Genistein (D0) (H1299 human NSCLC cells; X-Rays (250 KVp)): 4.28
DMF (Dose Modifying Factor) (H1299 human NSCLC cells; X-Rays, radiosensitization defined as DMF>1.1): 0.97
DMF (Dose Modifying Factor) (H1299 human NSCLC cells; lower LET protons (D2, 2 cm depth)): 1.09
Genistein (D0) [3, 6]: 1.26
DMF (Dose Modifying Factor) ([3]; High LET Protons): 1.07
Genistein (D0) ([3]; X-Rays (250 KVp)): 1.38
DMF (Dose Modifying Factor) ([3]; X-Rays): 1.01
oral bioavailability [4]: increased oral bioavailability
oral bioavailability [5]: increased oral bioavailability
